# According to article PMC12095047, “Transport of phenoxyacetic acid herbicides by PIN-FORMED auxin transporters” (Nature Plants, 2025):
# “And” between values parts separate entries of the source, which are not always exact repeats. Equal values may be shown once. Read-outs that look alike come from different tables or passages of the source.
# Assays:
# A. thaliana PIN8 = biological target: T1, A. thaliana PIN8 (Arabidopsis thaliana, UniProt Q9LFP6); assay: SSM electrophysiology, peak current response on PIN8 proteoliposomes; assay type: biochemical; conditions: for Peak current: WT, individual sensors; for Peak current (nA): Sensor 1-3
# T1 construct: made in house
# T1 sequence (Q9LFP6 1-367): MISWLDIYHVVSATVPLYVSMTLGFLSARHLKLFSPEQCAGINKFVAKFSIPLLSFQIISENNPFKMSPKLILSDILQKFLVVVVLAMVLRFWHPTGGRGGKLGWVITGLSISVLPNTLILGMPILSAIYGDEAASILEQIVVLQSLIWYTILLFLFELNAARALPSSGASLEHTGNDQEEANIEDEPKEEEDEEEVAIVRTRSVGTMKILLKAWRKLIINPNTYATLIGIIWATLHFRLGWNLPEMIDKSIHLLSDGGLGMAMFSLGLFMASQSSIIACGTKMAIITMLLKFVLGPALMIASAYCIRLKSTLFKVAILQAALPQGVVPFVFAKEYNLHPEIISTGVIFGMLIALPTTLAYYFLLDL
# PIN8 = biological target: T2, PIN8 (Arabidopsis thaliana, UniProt Q9LFP6); assay: SSM electrophysiology, KD by inhibition of the NPA binding current; conditions: individual sensors
# T2 construct: made in house
# T2 sequence (Q9LFP6 1-367): T1 sequence (Q9LFP6 1-367)
# PIN8 I51Y = biological target: T3, PIN8 I51Y (Arabidopsis thaliana, UniProt Q9LFP6, I51Y); assay type: biochemical; conditions: Michaelis–Menten fit
# T3 construct: made in house
# T3 sequence (Q9LFP6 whole entry I51Y): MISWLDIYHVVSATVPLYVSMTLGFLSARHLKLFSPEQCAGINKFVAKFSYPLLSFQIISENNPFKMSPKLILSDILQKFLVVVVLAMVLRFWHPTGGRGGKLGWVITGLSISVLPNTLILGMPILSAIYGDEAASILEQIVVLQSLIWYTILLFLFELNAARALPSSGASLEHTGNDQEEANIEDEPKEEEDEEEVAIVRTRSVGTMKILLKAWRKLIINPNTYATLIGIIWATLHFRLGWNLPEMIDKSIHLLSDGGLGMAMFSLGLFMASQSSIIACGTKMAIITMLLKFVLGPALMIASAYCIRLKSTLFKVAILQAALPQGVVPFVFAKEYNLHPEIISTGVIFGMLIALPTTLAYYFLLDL
# PIN8 N223A = biological target: T4, PIN8 N223A (Arabidopsis thaliana, UniProt Q9LFP6, N223A); assay type: biochemical; conditions: PIN8 N223A, Michaelis–Menten fit
# T4 construct: made in house
# T4 sequence (Q9LFP6 whole entry N223A): as the sequence (Q9LFP6 whole entry I51Y) above, with Y51I, N223A counted along it
# PIN8 S146A = biological target: T5, PIN8 S146A (Arabidopsis thaliana, UniProt Q9LFP6, S146A); assay type: biochemical; conditions: for Peak current: individual sensors
# T5 construct: made in house
# T5 sequence (Q9LFP6 whole entry S146A): as the sequence (Q9LFP6 whole entry I51Y) above, with Y51I, S146A counted along it
# PIN8 S266A = biological target: T6, PIN8 S266A (Arabidopsis thaliana, UniProt Q9LFP6, S266A); assay type: biochemical; conditions: for Peak current: S266A, individual sensors
# T6 construct: made in house
# T6 sequence (Q9LFP6 whole entry S266A): as the sequence (Q9LFP6 whole entry I51Y) above, with Y51I, S266A counted along it
# PIN8 S55A = biological target: T7, PIN8 S55A (Arabidopsis thaliana, UniProt Q9LFP6, S55A); assay type: biochemical; conditions: for Peak current: S55A, individual sensors
# T7 construct: made in house
# T7 sequence (Q9LFP6 whole entry S55A): as the sequence (Q9LFP6 whole entry I51Y) above, with Y51I, S55A counted along it
# PIN8 Y150F = biological target: T8, PIN8 Y150F (Arabidopsis thaliana, UniProt Q9LFP6, Y150F); assay type: biochemical
# T8 construct: made in house
# T8 sequence (Q9LFP6 whole entry Y150F): as the sequence (Q9LFP6 whole entry I51Y) above, with Y51I, Y150F counted along it
# [1] = WT PIN8 proteoliposomes, Michaelis–Menten fit
smiles,measurement,setting,value
"O=C(O)Cc1c[nH]c2ccccc12 [IAA, indole-3-acetic acid]",EC50,A. thaliana PIN8; [1],250 µM and 254 µM
same,maximal current Imax,A. thaliana PIN8; [1],18 ± 3 nA
same,Peak current,A. thaliana PIN8; 5 µM substrate,0.8096 nA and 0.6401 nA and 0.949 nA
same,Peak current,A. thaliana PIN8; 20 µM substrate,1.842 nA and 1.724 nA and 2.164 nA
same,Peak current,A. thaliana PIN8; 50 µM substrate,3.368 nA and 3.292 nA and 4.115 nA
same,Peak current,A. thaliana PIN8; 100 µM substrate,4.516 nA and 4.8122 nA and 5.921 nA
same,Peak current,A. thaliana PIN8; 500 µM substrate,9.827 nA and 10.2734 nA and 12.6135 nA
same,Peak current,A. thaliana PIN8; 1000 µM substrate,13.1379 nA and 13.1579 nA and 16.4113 nA
same,Peak current,A. thaliana PIN8; 2000 µM substrate,14.7357 nA and 15.0585 nA and 18.9117 nA
same,Peak current (nA),A. thaliana PIN8; [IAA] 5 µM,0.04999 nA and 0.08856 nA and 0.0843 nA
same,Peak current (nA),A. thaliana PIN8; [IAA] 50 µM,0.4222 nA and 0.6123 nA and 0.4745 nA
same,Peak current (nA),A. thaliana PIN8; [IAA] 100 µM,0.6662 nA and 0.8986 nA and 0.7119 nA
same,Peak current (nA),A. thaliana PIN8; [IAA] 500 µM,1.469 nA and 1.771 nA and 1.558 nA
same,Peak current (nA),A. thaliana PIN8; [IAA] 1000 µM,1.848 nA and 2.271 nA and 1.967 nA
same,Peak current (nA),A. thaliana PIN8; [IAA] 2000 µM,2.237 nA and 2.442 nA and 2.41 nA
same,inhibition at 5 µM,"PIN8; read-out: Rel. Inhibition of NPA peak currents, 5 µM substrate, 100 µM NPA",14.1%
same,inhibition at 50 µM,"PIN8; read-out: Rel. Inhibition of NPA peak currents, 50 µM substrate, 100 µM NPA",57%
same,inhibition at 100 µM,"PIN8; read-out: Rel. Inhibition of NPA peak currents, 100 µM substrate, 100 µM NPA",77.9%
same,inhibition at 250 µM,"PIN8; read-out: Rel. Inhibition of NPA peak currents, 250 µM substrate, 100 µM NPA",84.7%
same,inhibition at 500 µM,"PIN8; read-out: Rel. Inhibition of NPA peak currents, 500 µM substrate, 100 µM NPA",94.3%
same,inhibition at 1000 µM,"PIN8; read-out: Rel. Inhibition of NPA peak currents, 1000 µM substrate, 100 µM NPA",84.7%
same,Kd,"PIN8; sheet F2A (Fig. 2a, KD of substrate binding), read-out: Peak current",38.8 µM and 54 µM and 24.3 µM
same,Imax,PIN8 I51Y,2 ± 0.2 nA
same,EC50,PIN8 I51Y; read-out: EC50 of peak current response,547 ± 171 µM
same,Imax,PIN8 N223A,2 ± 0.8 nA
same,EC50,"PIN8 N223A; No transport = model could not be fit, read-out: EC50 of peak current response",444 ± 205 µM
same,Imax,"PIN8 S146A; PIN8 S146A, Michaelis–Menten fit",8 ± 2 nA
same,EC50,"PIN8 S146A; PIN8 S146A, Michaelis–Menten fit, read-out: EC50 of peak current response",498 ± 191 µM
same,Peak current,"PIN8 S146A; S146A, 5 µM substrate",0.4304 nA and 0.01967 nA and 0.2252 nA
same,Peak current,"PIN8 S146A; S146A, 20 µM substrate",0.857 nA and 0.324 nA and 0.6461 nA
same,Peak current,"PIN8 S146A; S146A, 50 µM substrate",1.458 nA and 0.6503 nA and 1.2348 nA
same,Peak current,"PIN8 S146A; S146A, 100 µM substrate",2.021 nA and 0.7074 nA and 1.578 nA
same,Peak current,"PIN8 S146A; S146A, 500 µM substrate",4.698 nA and 2.244 nA and 4.077 nA
same,Peak current,"PIN8 S146A; S146A, 1000 µM substrate",6.329 nA and 3.684 nA and 6.024 nA
same,Peak current,"PIN8 S146A; S146A, 2000 µM substrate",7.444 nA and 4.338 nA and 6.988 nA
same,fold-change difference to the respective EC50 of wildtype PIN8,"PIN8 S146A; S146A, direction (higher or lower affinity) shown by colour only",~ 2 fold
same,Imax,"PIN8 S266A; PIN8 S266A, Michaelis–Menten fit",4 ± 0.6 nA
same,EC50,"PIN8 S266A; PIN8 S266A, Michaelis–Menten fit, read-out: EC50 of peak current response",578 ± 183 µM
same,Peak current,PIN8 S266A; 5 µM substrate,0.2201 nA and 0.07526 nA and 0.1062 nA
same,Peak current,PIN8 S266A; 20 µM substrate,0.3015 nA and 0.4448 nA and 0.2134 nA
same,Peak current,PIN8 S266A; 50 µM substrate,0.4871 nA and 0.8571 nA and 0.3384 nA
same,Imax,"PIN8 S55A; PIN8 S55A, Michaelis–Menten fit",6 ± 1 nA
same,EC50,"PIN8 S55A; PIN8 S55A, Michaelis–Menten fit, read-out: EC50 of peak current response",213 ± 58 µM
same,Peak current,PIN8 S55A; 5 µM substrate,0.3417 nA and 0.3232 nA and 0.2318 nA and 0.3509 nA
same,Peak current,PIN8 S55A; 20 µM substrate,1.04 nA and 0.8246 nA and 0.4664 nA and 0.4596 nA
same,Peak current,PIN8 S55A; 50 µM substrate,1.937 nA and 1.54 nA and 0.9207 nA and 0.8323 nA
same,Peak current,PIN8 S55A; 100 µM substrate,2.888 nA and 2.325 nA and 1.514 nA and 1.385 nA
same,Peak current,PIN8 S55A; 500 µM substrate,5.317 nA and 4.4508 nA and 3.048 nA and 3.044 nA
same,Peak current,PIN8 S55A; 1000 µM substrate,6.258 nA and 5.302 nA and 3.739 nA and 3.804 nA
same,Peak current,PIN8 S55A; 2000 µM substrate,7.104 nA and 6.138 nA and 4.476 nA and 4.5392 nA
same,Imax,"PIN8 Y150F; PIN8 Y150F, Michaelis–Menten fit",6 ± 2 nA
same,EC50,"PIN8 Y150F; PIN8 Y150F, Michaelis–Menten fit, read-out: EC50 of peak current response",452 ± 32 µM
same,fold-change difference to the respective EC50 of wildtype PIN8,"PIN8 Y150F; Y150F, direction shown by colour only",~ 2 fold
